One block for each compound: values may come before it.
How the values were obtained:
[1] = Plasma half-life / plasma pharmacokinetics (Table G); type: in vivo; conditions: rat
Protocol: (§1) Animals were fasted overnight prior to dose administration and food returned to the animals two hours after dosing. Following IV dosing, blood samples (ca 200 μL) were collected into separate tubes containing anticoagulant (K-EDTA) via the orbital plexus at various times post administration. Plasma samples were prepared immediately after collection by centrifugation for ten minutes using a tabletop centrifuge, and stored at −80° C. Brain tissue was weighed, homogenized on ice in 50 mM phosphate buffer (2 ml per brain) and the homogenate stored at −80° C. Plasma and brain homogenate samples were extracted by the addition of 5 volumes of cold acetonitrile, mixed well by vortexing and centrifuged at 4000 rpm for 15 minutes. The supernatant fractions were analyzed by LC-MS/MS operating in multiple reaction monitoring mode (MRM). The amount of parent compound in each sample was calculated by comparing the response of the analyte in the sample to that of a standard curve.

[2] = molecular target: rat alpha-1 adrenergic receptor; assay: alpha-1 adrenergic receptor binding by displacement of 3[H]-prazosin in rat brain membranes; conditions: 3[H]-prazosin displacement, read-out: α1 IC50
Protocol: Binding to the rat alpha-1 adrenergic receptor in rat brain membranes was determined by displacement of ^3[H]-prazosin (P. Greengrass and R. Bremner; Binding characteristics of 3H-prazosin to rat brain a-adrenergic receptors. Eur. J. Pharmacol. 1979, 55: 323-326). Compounds were incubated at 0.3 or 3 μM final concentration, in duplicate, and the amount of displaced ^3[H]-prazosin determined by liquid scintillation spectroscopy.
Binding IC50 values were determined from displacement curves (four-six concentrations, each concentration in duplicate) fit by a non-linear, least squares, regression analysis using MathIQ (ID Business Solutions Ltd., UK). The binding Ki's were determined from the IC50 according to the method of Cheng and Prusoff (Y. Cheng and W. H. Prusoff; Relationship between the inhibition constant (K1) and the concentration of inhibitor which causes 50 percent inhibition (IC50) of an enzymatic reaction. Biochem. Pharmacol. 1973, 22: 3099-3108).

[3] = Brain exposure / brain penetration (Table H); type: in vivo, rat; conditions: for BBB Pene Classification: classes High/Moderate/Low, key not given
Protocol: as §1, with “Rats (n=3 per dose) were administered compounds at a doses of 1-4 mg/kg in a single bolus i.v. infusion (2 ml/kg body weight) via the tail vein formulated in 2% dimethyl acetamide/98% 2-hydroxy-propyl cyclodextrin (5%). Animals” for “Animals”

[4] = Oral absorption (Table I); type: in vivo; conditions: rat, plasma, read-out: p.o. t½ hr (converted)
[5] = iv, 1 mg/kg, 1 MPK i.v., read-out: PK-i.v. t½ (converted)
[6] = iv, 3 mg/kg, 3 MPK i.v., read-out: PK-i.v. t½ (converted)

half-life [1, 5]: 0.8 h
SMILES: Cc1ccc(N2CCN(C[C@H](O)COc3ccc4c(c3)CCC(=O)N4)CC2)cc1 [drawing 758]

half-life [1, 5]: 1.84 h
SMILES: O=C(COc1ccc2[nH]c(=O)[nH]c2c1)N1CCN(c2ccc(Cl)c(Cl)c2)CC1

IC50 [2]: 0.62 µM
SMILES: O=c1[nH]c2ccc(OC[C@@H](O)CN3CCN(c4ccc(Cl)cc4)CC3)cc2o1 [drawing 744]

half-life [1, 5]: 2.4 h
SMILES: O=c1[nH]c2ccc(OC[C@@H](O)CN3CCN(c4ccc(F)c(F)c4)CC3)cc2[nH]1 [drawing 755]

half-life [1, 5]: 0.6 h
SMILES: Cc1ccc(N2CCN(C[C@H](O)COc3ccc4[nH]c(=O)oc4c3)CC2)cc1 [drawing 761]

Kp at 15 min ([3]; rat, brain/plasma, iv, 1 mg/kg, 1 MPK i.v., 15 m, read-out: RATIO: Brain:plasma (Direct), 15 m): 0.04
Kp at 30 min ([3]; rat, brain/plasma, iv, 1 mg/kg, 1 MPK i.v., 30 m, read-out: RATIO: Brain:plasma (Direct), 30 m): 0.06
Kp at 1 h ([3]; rat, brain/plasma, iv, 1 mg/kg, 1 MPK i.v., 1 hr, read-out: RATIO: Brain:plasma (Direct), 1 hr): 0.07
Kp at 3 h ([3]; rat, brain/plasma, iv, 1 mg/kg, 1 MPK i.v., 3 hr, read-out: RATIO: Brain:plasma (Direct), 3 hr): 0.1
Kp ([3]; rat, brain/plasma, iv, 1 mg/kg, 1 MPK i.v., avg, read-out: RATIO: Brain:plasma (Direct), avg): 0.07
SMILES: O=C(COc1ccc2[nH]c(=O)oc2c1)N1CCN(c2ccc(Cl)c(Cl)c2)CC1 [drawing 775]

RATIO: Brain:plasma (Direct), 2 hr ([3]; 3 MPK i.v., 2 hr): BLQ
BBB Pene Classification [3]: High
SMILES: Oc1ccc(OC[C@@H](O)CSc2nc3cc(Cl)c(Cl)cc3[nH]2)cc1 [drawing 776]

IC50 [2]: 0.35 µM
SMILES: CS(=O)(=O)Nc1ccc(OC[C@@H](O)CN2CCN(c3ccc(Cl)cc3)CC2)cc1

SMILES: NC(=O)Nc1ccc(OC[C@@H](O)CN2CCN(c3ccc(Cl)cc3)CC2)cc1 [drawing 771]
BBB Pene Classification [3]: Low

SMILES: NC(=O)Nc1ccc(OC[C@@H](O)CN2CCN(c3ccc(Cl)cc3)CC2)cc1 [drawing 746]
IC50 [2]: 0.34 µM

SMILES: NC(=O)Nc1ccc(OC[C@@H](O)CN2CCN(c3ccc(Cl)cc3)CC2)cc1 [drawing 778]
half-life ([4]; 10 mg/kg, 10 MPK, 0-8 hr p.o.): 388 min

IC50 [2]: 0.72 µM
SMILES: Oc1ccc(OC[C@@H](O)CN2CCN(c3ccc(Cl)cc3)CC2)cc1 [drawing 743]

BBB Pene Classification [3]: Moderate
SMILES: O=C(COc1ccc2[nH]c(=O)oc2c1)N1CCN(c2ccc(Cl)c(Cl)c2)CC1 [drawing 774]

half-life [1, 6]: ≤ 0.8 h
SMILES: O=C1N(C[C@H](O)COc2ccc(O)cc2)CCN1c1ccc(Cl)cc1 [drawing 763]

IC50 [2]: ~0.1 µM
SMILES: O=C1Cc2cc(OC[C@@H](O)CN3CCN(c4ccc(Cl)cc4)CC3)ccc2N1

half-life [1, 5]: 1.14 h
SMILES: NC(=O)Nc1ccc(OC[C@@H](O)CN2CCN(c3ccc(Cl)cc3)C2=O)cc1 [drawing 762]

IC50 [2]: ~0.35 µM
SMILES: O=c1[nH]c2ccc(OC[C@@H](O)CN3CCN(c4ccc(Cl)cc4)CC3)cc2[nH]1

half-life [1, 5]: 0.6 h
SMILES: Oc1ccc(OC[C@@H](O)CN2CCN(c3ccc(Cl)cc3)CC2)cc1 [drawing 759]

BBB Pene Classification [3]: Moderate
SMILES: Cc1ccc(N2CCN(C[C@H](O)COc3ccc4[nH]c(=O)oc4c3)CC2)cc1 [drawing 769]

IC50 [2]: ~0.15 µM
SMILES: O[C@H](COc1ccc2[nH]c(=S)[nH]c2c1)CN1CCN(c2ccc(Cl)cc2)CC1

IC50 [2]: ~0.3 µM
SMILES: O[C@H](COc1ccc2[nH]ncc2c1)CN1CCN(c2ccc(Cl)cc2)CC1

half-life ([1]; ip, 60 mg/kg, 60 MPK i.p., read-out: PK t½ (hr) i.p.): > 2 h
SMILES: CS(=O)(=O)Nc1ccc(OC[C@@H](O)CN2CCN(c3ccc(F)c(F)c3)CC2)cc1 [drawing 757]

BBB Pene Classification [3]: High
SMILES: O=C1N(C[C@H](O)COc2ccc(O)cc2)CCN1c1ccc(Cl)cc1 [drawing 772]

half-life ([4]; 5 mg/kg, 5 MPK, 0-6 hr p.o.): 51 min
SMILES: Cc1ccc(N2CCN(C[C@H](O)COc3ccc4c(c3)CCC(=O)N4)CC2)cc1 [drawing 780]

half-life ([1]; ip, 10 mg/kg, 10 MPK i.p., read-out: PK t½ (hr) i.p.): ~0.83 h
SMILES: O=C(COc1ccc2[nH]c(=O)oc2c1)N1CCN(c2ccc(Cl)c(Cl)c2)CC1 [drawing 765]

half-life [1, 6]: ≤ 0.8 h
SMILES: O=c1[nH]c2ccc(OC[C@@H](O)CSc3nc4cc(Cl)c(Cl)cc4[nH]3)cc2o1 [drawing 766]

RATIO: Brain:plasma (Direct), 30 m ([3]; 3 MPK i.v., 30 m): BLQ (avg); BLQ (30 m), BLQ (1 hr),
RATIO: Brain:plasma (Direct), 1 hr ([3]; 3 MPK i.v., 1 hr): BLQ (avg); BLQ (30 m), BLQ (1 hr),
RATIO: Brain:plasma (Direct), avg ([3]; 3 MPK i.v., avg): BLQ (avg); BLQ (30 m), BLQ (1 hr),
BBB Pene Classification [3]: Moderate
SMILES: O=c1[nH]c2ccc(OC[C@@H](O)CSc3nc4cc(Cl)c(Cl)cc4[nH]3)cc2o1 [drawing 777]

half-life [1, 6]: 2.6 h
SMILES: CS(=O)(=O)Nc1ccc(OC[C@@H](O)CN2CCN(c3ccc(Cl)c(Cl)c3)CC2)cc1

half-life [1, 5]: 0.6 h
SMILES: O=c1[nH]c2ccc(OC[C@@H](O)CN3CCN(c4ccc(Cl)cc4)CC3)cc2o1 [drawing 760]

IC50 [2]: ~0.35 µM
SMILES: O=c1ccc2cc(OC[C@@H](O)CN3CCN(c4ccc(Cl)cc4)CC3)ccc2[nH]1

BBB Pene Classification [3]: High
SMILES: Oc1ccc(OC[C@@H](O)CN2CCN(c3ccc(Cl)cc3)CC2)cc1 [drawing 768]

RATIO: Brain:plasma (Direct) ([3]; 1 MPK i.v., no time point printed): Below Detection limit (~0)
BBB Pene Classification [3]: Low
SMILES: NC(=O)Nc1ccc(OC[C@@H](O)CN2CCN(c3ccc(Cl)cc3)C2=O)cc1 [drawing 773]

IC50 [2]: ~0.1 µM
SMILES: O=C1CCc2cc(OC[C@@H](O)CN3CCN(c4ccc(Cl)cc4)CC3)ccc2N1

half-life [1, 6]: ~0.5 h
SMILES: Oc1ccc(OC[C@@H](O)CSc2nc3cc(Cl)c(Cl)cc3[nH]2)cc1 [drawing 767]

BBB Pene Classification [3]: Moderate
SMILES: CS(=O)(=O)Nc1ccc(OC[C@@H](O)CN2CCN(c3ccc(F)c(F)c3)CC2)cc1 [drawing 770]

half-life ([4]; 5 mg/kg, 5 MPK, 0-6 hr p.o.): 182 min
SMILES: O=c1[nH]c2ccc(OC[C@@H](O)CN3CCN(c4ccc(F)c(F)c4)CC3)cc2[nH]1 [drawing 779]

SMILES: NC(=O)Nc1ccc(OC[C@@H](O)CN2CCN(c3ccc(Cl)cc3)CC2)cc1 [drawing 754]
half-life [1, 5]: 2.7 h

— patent US9079852B2, “NMDA receptor antagonists for neuroprotection” (Emory University, priority 2007, dated 2015)
